From patent publication US20100197800A1, “Treatment and/or Prevention of Presbycusis by Modulation of Metabotropic Glutamate Receptor 7” (priority 2007, published 2010)
Like-named read-outs stand apart in the source and are kept apart here.

What was measured:
rat mGluR7 [1] = target: T1, rat mGluR7 (Rattus norvegicus, UniProt P35400); conditions: CHO cells expressing rat mGluR7; read-out: IC50, inhibition of L-AP4-induced inhibition of forskolin-stimulated cAMP accumulation; cited from earlier work
T1 construct: host or cells: CHO cells, transfected

rat mGluR7 [2] = target: T1, rat mGluR7; conditions: cited from earlier work
mGluR7 [3] = target: T2, mGluR7 (Homo sapiens, UniProt Q14831); design: host or cells: CHO cells, transfected; conditions: CHO cells coexpressing human mGluR7 with G15; cited from earlier work
human mGluR7b = human mGluR7b (Homo sapiens, UniProt Q14831); conditions: agonist; cited from earlier work
mGluR4a = mGluR4a (Homo sapiens, UniProt Q14833); conditions: agonist; cited from earlier work
mGluR7 [4] = target: T2, mGluR7; conditions: through an allosteric site; cited from earlier work
presbycusis = experiment: treatment of patients with presbycusis, hearing threshold; type: in vivo, human; conditions: for hearing threshold left ear / hearing threshold right ear: after 14 days
Experimental: A person presents with symptoms of presbycusis, including moderate loss of higher frequency (above 2000 Hz) hearing (50 decibel threshold) in both ears. The person is administered two drops per ear twice daily of a topical otic formulation comprising 10 ug/ml of AMN082 in a phosphate-buffered saline and further comprising 0.25% the carboxyvinyl water swellable gelling agent, Carbopol 934P; i.e., about 1 ug nGluR7 agonist per ear per dosing. After 14 days, the patient is tested by an audiologist. The threshold is lowered to 35 decibels right ear and 40 decibels left ear.
A person presents with symptoms of presbycusis, including loss of moderately high frequency (above 1000 Hz) hearing (40 decibel threshold right ear and 35 decibel threshold left ear). The person is administered an oral formulation 4 times per day comprising 2 ug per dose of AMN082. The extended release capsule comprises a matrix of 10% by weight hydroxypropyl methylcellulose (e.g., Methocel®; Dow Chemical Company, U.S.A), and 50% by weight of a cornstarch filler. After 14 days, the threshold is lowered to 35 decibels right ear and 25 decibels left ear.
A person presents with symptoms of presbycusis, including loss of hearing in the 500 to above 2000 Hz range. The person is implanted with an Alset® osmotic pump adapted for cochlear delivery; see e.g., Richardson, R. T., Noushi, F., O'Leary, S. Inner ear therapy for neural preservation. AUDIOLOGY AND NEURO-OTOLOGY 2006; 11(6): 343-356. The pump is supplied with an aqueous sterile solution comprising AMN082. The pump delivers a dose of 10 ug/hour of the mGluR7 modulator. After 10 days, hearing is improved in both ears.

mGluR7 [5] = target: T3, mGluR7 (Mus musculus, UniProt Q68ED2); conditions: cited from earlier work
T3 construct: host or cells: whole animals (in vivo), endogenous receptor

mGluR8 [6] = target: T4, mGluR8 (Homo sapiens, UniProt O00222); conditions: antagonist; read-out: 1050 values on inhibition of glutamate stimulated inositol phosphate accumulation, mGluR8; cited from earlier work
mGluR7 [7] = target: T2, mGluR7; conditions: antagonist; read-out: 1050 values on inhibition of glutamate stimulated inositol phosphate accumulation, mGluR7; cited from earlier work
mGluR6 = mGluR6 (Homo sapiens, UniProt O15303); conditions: antagonist; read-out: 1050 values on inhibition of glutamate stimulated inositol phosphate accumulation, mGluR6; cited from earlier work
mGluR7 [8] = target: T2, mGluR7; conditions: higher for mGluR7; cited from earlier work
mGluR4 = mGluR4 (Homo sapiens, UniProt Q14833); conditions: concentrations of at least 1 μM; cited from earlier work
mGluR7 [9] = target: T2, mGluR7; conditions: cited from earlier work
mGluR3 = mGluR3 (Homo sapiens, UniProt Q14832); conditions: concentrations of at least 1 μM; cited from earlier work
mGluR8 [10] = target: T4, mGluR8; conditions: concentrations of at least 1 μM; cited from earlier work
mGluR1 = mGluR1 (Homo sapiens, UniProt Q13255); conditions: concentrations of at least 1 μM; cited from earlier work
mGluR2 = mGluR2 (Homo sapiens, UniProt Q14416); conditions: concentrations of at least 1 μM; cited from earlier work
mGluR7 [11] = target: T2, mGluR7; design: host or cells: CHO cells (printed only for the inverse-agonism experiment, A12); conditions: CHO cells expressing mGluR7; cited from earlier work
mGluR5 = mGluR5 (Homo sapiens, UniProt P41594); conditions: concentrations of at least 1 μM; cited from earlier work
mGluR7 [12] = target: T2, mGluR7; conditions: cited from earlier work; remark: listed apart in the source
[13] = Example 3: person, topical otic drops twice daily, baseline 50 decibel, above 2000 Hz

T1 sequence (P35400 35-915): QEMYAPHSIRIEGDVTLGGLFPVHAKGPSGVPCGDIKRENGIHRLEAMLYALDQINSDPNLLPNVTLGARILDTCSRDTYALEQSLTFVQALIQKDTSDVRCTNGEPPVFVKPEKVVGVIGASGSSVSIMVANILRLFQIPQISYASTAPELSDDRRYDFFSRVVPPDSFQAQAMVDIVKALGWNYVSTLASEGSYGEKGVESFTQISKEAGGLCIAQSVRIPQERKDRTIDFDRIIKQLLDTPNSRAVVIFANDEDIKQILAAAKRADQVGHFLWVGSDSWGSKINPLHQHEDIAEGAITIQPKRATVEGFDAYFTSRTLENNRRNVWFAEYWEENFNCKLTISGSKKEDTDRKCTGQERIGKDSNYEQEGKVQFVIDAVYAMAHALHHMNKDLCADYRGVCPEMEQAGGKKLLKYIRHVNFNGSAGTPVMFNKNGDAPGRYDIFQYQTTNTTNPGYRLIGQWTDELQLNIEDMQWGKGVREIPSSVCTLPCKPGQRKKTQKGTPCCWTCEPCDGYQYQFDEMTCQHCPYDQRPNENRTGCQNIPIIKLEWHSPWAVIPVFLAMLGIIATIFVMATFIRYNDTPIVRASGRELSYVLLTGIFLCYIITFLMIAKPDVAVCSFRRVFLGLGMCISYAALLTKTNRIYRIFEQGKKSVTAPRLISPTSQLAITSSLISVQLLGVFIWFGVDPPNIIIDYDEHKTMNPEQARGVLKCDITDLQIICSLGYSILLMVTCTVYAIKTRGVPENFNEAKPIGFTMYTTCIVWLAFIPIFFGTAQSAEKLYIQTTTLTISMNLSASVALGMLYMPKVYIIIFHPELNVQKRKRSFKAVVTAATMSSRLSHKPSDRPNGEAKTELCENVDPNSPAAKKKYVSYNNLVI
T2 sequence (Q14831 35-915): as the sequence (P35400 35-915) above, with H420N, T454S, S486A, N544D counted along it
T3 sequence (Q68ED2 35-915): as the sequence (P35400 35-915) above, with H420N, S486P counted along it
T4 sequence (O00222 34-908, species assumed): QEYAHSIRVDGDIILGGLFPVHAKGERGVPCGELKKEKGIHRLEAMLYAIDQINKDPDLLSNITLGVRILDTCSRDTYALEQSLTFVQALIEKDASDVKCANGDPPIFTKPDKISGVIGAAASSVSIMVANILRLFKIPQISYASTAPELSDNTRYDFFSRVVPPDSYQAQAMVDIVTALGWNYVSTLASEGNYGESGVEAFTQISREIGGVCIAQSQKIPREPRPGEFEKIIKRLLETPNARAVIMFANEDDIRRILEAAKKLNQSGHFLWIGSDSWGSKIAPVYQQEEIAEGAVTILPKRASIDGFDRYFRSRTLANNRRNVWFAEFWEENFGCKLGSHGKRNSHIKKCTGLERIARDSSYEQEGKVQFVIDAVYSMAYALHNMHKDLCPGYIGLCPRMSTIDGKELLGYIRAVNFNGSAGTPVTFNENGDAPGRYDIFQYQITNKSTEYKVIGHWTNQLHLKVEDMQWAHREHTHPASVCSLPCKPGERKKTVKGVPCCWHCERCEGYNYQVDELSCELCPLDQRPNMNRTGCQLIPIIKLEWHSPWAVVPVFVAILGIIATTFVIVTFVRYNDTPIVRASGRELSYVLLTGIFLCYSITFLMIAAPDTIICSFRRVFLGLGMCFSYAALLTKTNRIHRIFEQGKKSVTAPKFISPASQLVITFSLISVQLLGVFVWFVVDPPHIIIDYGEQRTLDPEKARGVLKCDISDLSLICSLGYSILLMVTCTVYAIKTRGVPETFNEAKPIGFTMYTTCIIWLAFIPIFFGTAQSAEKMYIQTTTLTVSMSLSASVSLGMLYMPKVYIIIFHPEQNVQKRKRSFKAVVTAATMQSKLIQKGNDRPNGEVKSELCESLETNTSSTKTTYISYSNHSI
human mGluR7b, sequence (Q14831 35-922 isoform Q14831-2 limits assumed): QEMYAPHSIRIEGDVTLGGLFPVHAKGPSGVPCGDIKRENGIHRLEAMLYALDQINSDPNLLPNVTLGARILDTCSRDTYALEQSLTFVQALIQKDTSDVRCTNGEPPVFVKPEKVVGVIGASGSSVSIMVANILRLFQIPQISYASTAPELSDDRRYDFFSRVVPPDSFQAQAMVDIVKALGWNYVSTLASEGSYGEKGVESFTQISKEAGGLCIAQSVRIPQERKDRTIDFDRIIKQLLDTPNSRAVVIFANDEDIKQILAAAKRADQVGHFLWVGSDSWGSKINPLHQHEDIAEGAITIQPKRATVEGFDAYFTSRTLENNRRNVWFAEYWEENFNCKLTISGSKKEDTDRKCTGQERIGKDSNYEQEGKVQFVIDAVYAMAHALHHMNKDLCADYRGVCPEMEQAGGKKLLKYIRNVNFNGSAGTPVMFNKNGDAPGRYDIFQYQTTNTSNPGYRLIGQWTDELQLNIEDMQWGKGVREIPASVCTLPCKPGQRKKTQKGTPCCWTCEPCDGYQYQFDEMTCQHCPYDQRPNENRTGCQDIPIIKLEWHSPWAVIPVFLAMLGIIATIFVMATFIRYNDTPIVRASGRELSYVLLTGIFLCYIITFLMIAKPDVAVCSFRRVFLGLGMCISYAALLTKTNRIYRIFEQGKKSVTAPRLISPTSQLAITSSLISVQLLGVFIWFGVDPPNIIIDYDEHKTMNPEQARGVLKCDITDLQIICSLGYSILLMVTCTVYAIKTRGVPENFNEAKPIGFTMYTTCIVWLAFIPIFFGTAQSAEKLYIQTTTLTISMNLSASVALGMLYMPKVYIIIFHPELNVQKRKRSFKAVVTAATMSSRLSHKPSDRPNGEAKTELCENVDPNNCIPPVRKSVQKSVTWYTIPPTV
mGluR6, sequence (O15303 25-877): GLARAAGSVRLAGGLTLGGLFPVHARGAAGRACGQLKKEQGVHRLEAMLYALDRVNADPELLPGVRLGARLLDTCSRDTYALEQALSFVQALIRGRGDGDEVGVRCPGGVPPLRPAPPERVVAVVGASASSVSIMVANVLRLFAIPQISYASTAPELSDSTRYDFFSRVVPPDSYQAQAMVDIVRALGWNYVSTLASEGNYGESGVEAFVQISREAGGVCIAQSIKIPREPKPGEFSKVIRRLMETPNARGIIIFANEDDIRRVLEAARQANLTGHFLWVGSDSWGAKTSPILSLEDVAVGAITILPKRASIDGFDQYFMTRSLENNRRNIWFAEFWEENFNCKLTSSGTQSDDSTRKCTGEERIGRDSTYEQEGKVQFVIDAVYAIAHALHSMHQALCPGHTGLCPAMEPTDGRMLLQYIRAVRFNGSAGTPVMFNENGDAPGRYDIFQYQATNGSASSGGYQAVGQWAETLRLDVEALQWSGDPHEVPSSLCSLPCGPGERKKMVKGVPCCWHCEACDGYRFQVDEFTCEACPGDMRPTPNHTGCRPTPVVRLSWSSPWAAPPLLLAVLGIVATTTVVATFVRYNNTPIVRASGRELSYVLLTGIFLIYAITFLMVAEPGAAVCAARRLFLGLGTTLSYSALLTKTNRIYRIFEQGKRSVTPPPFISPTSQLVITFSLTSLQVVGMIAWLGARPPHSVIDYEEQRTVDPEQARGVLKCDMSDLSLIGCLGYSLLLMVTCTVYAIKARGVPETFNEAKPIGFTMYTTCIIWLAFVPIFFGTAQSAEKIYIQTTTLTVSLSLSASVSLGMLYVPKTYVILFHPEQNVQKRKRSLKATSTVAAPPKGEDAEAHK
mGluR5, sequence (P41594 21-1212): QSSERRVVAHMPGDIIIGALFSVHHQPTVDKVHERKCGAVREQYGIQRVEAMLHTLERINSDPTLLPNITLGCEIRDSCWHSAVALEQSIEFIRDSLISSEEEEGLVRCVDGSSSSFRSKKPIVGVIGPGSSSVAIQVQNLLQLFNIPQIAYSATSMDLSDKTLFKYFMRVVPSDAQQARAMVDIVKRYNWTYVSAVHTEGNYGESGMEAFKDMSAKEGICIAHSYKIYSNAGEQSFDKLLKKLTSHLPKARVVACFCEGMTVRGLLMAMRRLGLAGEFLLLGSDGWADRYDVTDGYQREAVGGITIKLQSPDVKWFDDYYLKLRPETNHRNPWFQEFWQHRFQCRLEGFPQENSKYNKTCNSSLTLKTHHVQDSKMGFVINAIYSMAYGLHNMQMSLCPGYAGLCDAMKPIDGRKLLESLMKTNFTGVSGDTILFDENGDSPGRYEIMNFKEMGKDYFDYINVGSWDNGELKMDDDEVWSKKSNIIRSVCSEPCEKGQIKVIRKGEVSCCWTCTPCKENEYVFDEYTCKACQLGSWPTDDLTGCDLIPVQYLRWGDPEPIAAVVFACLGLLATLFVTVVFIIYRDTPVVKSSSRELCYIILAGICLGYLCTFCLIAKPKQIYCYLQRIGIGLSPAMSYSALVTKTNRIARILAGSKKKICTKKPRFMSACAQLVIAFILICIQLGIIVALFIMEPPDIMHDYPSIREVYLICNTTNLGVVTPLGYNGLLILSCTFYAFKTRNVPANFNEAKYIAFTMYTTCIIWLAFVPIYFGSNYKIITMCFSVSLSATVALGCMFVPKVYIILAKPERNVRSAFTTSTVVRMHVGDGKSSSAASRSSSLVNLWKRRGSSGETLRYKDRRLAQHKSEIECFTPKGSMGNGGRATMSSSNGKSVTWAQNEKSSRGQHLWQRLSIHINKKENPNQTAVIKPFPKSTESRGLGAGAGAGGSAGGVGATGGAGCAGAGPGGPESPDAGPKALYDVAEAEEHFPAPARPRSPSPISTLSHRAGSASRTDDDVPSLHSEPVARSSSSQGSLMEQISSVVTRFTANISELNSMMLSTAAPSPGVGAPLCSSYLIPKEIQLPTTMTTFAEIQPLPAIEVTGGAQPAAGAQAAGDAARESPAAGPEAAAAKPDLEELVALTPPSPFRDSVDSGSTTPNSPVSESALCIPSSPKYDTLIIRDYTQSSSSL

Which IC50 (rat mGluR7 [1]) does the source give for “5-Methyl-3,6-diphenylisoxazolo[4,5-e]pyridin-4(5H)-one [MDIP]” here?
The IC50 was 0.099 µM.

And the IC50 (rat mGluR7 [2]; CHO cells coexpressing rat mGluR7 with G15, read-out: IC50, inhibition of L-AP4-induced intracellular Ca2+ mobilization)?
Its IC50 is 0.02 µM.

What about the “inhibition of the L-AP4-induced cAMP response” value (mGluR7 [3]) of the same compound?
Its value is “inhibited”.

For N[C@@H](C(=O)O)c1ccc(P(=O)(O)O)cc1 (racemic) [(+)-PPG, (R,S)-phosphonophenylglycine], which EC50 (human mGluR7b) is on record?
Its EC50 is 48 µM.

What about the EC50 (mGluR4a) of the same compound?
The EC50 was 3.2 µM.

What does the source list for Cl.Cl.c1ccc(C(NCCNC(c2ccccc2)c2ccccc2)c2ccccc2)cc1 [AMN082, N,N′-dibenzhydryl-ethane-1,2-diamine dihydrochloride]?
activation of mGluR7 (mGluR7 [4]): fully activating; hearing threshold left ear (presbycusis; [13]): 40 decibels; hearing threshold right ear (presbycusis; [13]): 35 decibels; hearing threshold left ear (presbycusis; Example 4: person, oral 2 ug 4 times per day, baseline 35 decibel, above 1000 Hz): 25 decibels; hearing threshold right ear (presbycusis; Example 4: person, oral 2 ug 4 times per day, baseline 40 decibel, above 1000 Hz): 35 decibels; hearing in both ears (presbycusis; Example 5: person, cochlear osmotic pump 10 ug/hour, after 10 days): improved; oral activity (mGluR7 [5]; in vivo, po): orally active; blood-brain barrier penetration (mGluR7 [5]; in vivo): penetrate the blood-brain barrier; increase in stress hormone levels in mGluR7 knockout animals (mGluR7 [5]; mGluR7 knockout animals): absent; stress hormone levels (mGluR7 [5]; wild-type animals): robust increase

With N[C@H](C(=O)O)C1[C@H](C(=O)O)[C@H]1C(=O)O (stereo partly drawn) [DCG-IV, (2S,1'S,2'S)-2-(dicarboxycyclopropyl)glycine] as the compound, how does the IC50 (mGluR8 [6]) read?
Its IC50 is 32 µM.

What about the IC50 (mGluR7 [7]) of the same compound?
The IC50 was 40.1 µM.

And the IC50 (mGluR6)?
Its IC50 is 39.6 µM.

Which “concentrations activating mGluR7 relative to those activating mGluRs 4, 6, and 8” value (mGluR7 [8]) does the source give for N[C@@H](CCP(=O)(O)O)C(=O)O [L-AP4, L-(+)-2-amino-4-phosphonobutyric acid] here?
The value was 2-3 orders of magnitude.

For COc1ccc(-c2cc3onc(-c4ccncc4)c3c(=O)n2C)cc1 [MMPIP, 6-(4-methoxyphenyl)-5-methyl-3-pyridin-4-ylisoxazolo[4,5-c]pyridin-4(5H)-one], which “effect on mGluR4” value (mGluR4) is on record?
Its value is “no significant effect”.

What about the “antagonism of AMN082-induced inhibition of cAMP accumulation” value (mGluR7 [9]) of the same compound?
The value was “able to antagonize”.

What about the “effect on mGluR3” value (mGluR3) of the same compound?
The value was “no significant effect”.

What about the IC50 (rat mGluR7 [1]) of the same compound?
Its IC50 is 0.22 µM.

What about the “effect on mGluR8” value (mGluR8 [10]) of the same compound?
Its value is “no significant effect”.

And the “effect on mGluR1” value (mGluR1)?
Its value is “no significant effect”.

What about the “maximal response in agonist concentration-response curves in the presence of the compound” value (rat mGluR7 [2]) of the same compound?
Its value is “reduced”.

And the reversibility of antagonism (rat mGluR7 [2])?
Its reversibility of antagonism is “reversible”.

What about the “effect on mGluR2” value (mGluR2) of the same compound?
Its value is “no significant effect”.

What about the “forskolin-stimulated cAMP levels in the absence of agonists (inverse agonistic activity)” value (mGluR7 [11]) of the same compound?
The value was “further increase”.

What about the “effect on mGluR5” value (mGluR5) of the same compound?
Its value is “no significant effect”.

And the “displacement of [3H]LY341495 bound to mGluR7” value (mGluR7 [12])?
Its value is “did not displace”.

And the “inhibition of the L-AP4-induced cAMP response” value (mGluR7 [3])?
The value was “inhibited”.
